ChEMBL document CHEMBL5252541, “Repurposing antipsychotic drugs into antifungal agents: Synergistic combinations of azoles and bromperidol derivatives in the treatment of various fungal infections” (Eur J Med Chem, 2017)

Experiments:
Candida albicans [1] = test: Antifungal activity against Candida albicans ATCC MYA-1003 measured after 48 hrs by broth microdilution analysis; type: functional
Candida albicans [2] = test: Antifungal activity against Candida albicans ATCC MYA-2876 measured after 48 hrs by broth microdilution analysis; type: functional
Candida albicans [3] = test: Additive antifungal activity against Candida albicans ATCC 64124 assessed as fractional inhibitory concentration index measured for 72 hrs in presence of fluconazole; type: functional
Candida albicans [4] = test: Antifungal activity against Candida albicans ATCC 64124 measured after 48 hrs by broth microdilution analysis; type: functional
Aspergillus terreus [5] = test: Additive antifungal activity against Aspergillus terreus ATCC MYA-3633 assessed as fractional inhibitory concentration index measured for 72 hrs in presence of voriconazole; type: functional
Aspergillus terreus [6] = test: Antifungal activity against Aspergillus terreus ATCC MYA-3633 measured after 48 hrs by broth microdilution analysis; type: functional
Candida albicans [7] = test: Synergistic antifungal activity against Candida albicans ATCC 10231 assessed as compound MIC measured after 48 hrs in presence of posaconazole by checkboard based microplate reader analysis; type: functional
Candida albicans [8] = test: Additive antifungal activity against Candida albicans MYA-1003 assessed as fractional inhibitory concentration index measured for 72 hrs in presence of posaconazole
Candida albicans [9] = test: Synergistic antifungal activity against Candida albicans ATCC 10231 assessed as compound MIC measured after 48 hrs in presence of fluconazole by checkboard based microplate reader analysis; type: functional
Candida albicans [10] = test: Synergistic antifungal activity against Candida albicans ATCC 64124 assessed as compound MIC measured after 48 hrs in presence of voriconazole by checkboard based microplate reader analysis; type: functional
Candida albicans [11] = test: Additive antifungal activity against Candida albicans ATCC 10231 assessed as fractional inhibitory concentration index measured for 72 hrs in presence of itraconazole; type: functional
Candida albicans [12] = test: Additive antifungal activity against Candida albicans ATCC MYA-2876 assessed as fractional inhibitory concentration index measured for 72 hrs in presence of posaconazole; type: functional
Candida albicans [13] = test: Synergistic antifungal activity against Candida albicans ATCC 64124 assessed as compound MIC measured after 48 hrs in presence of itraconazole by checkboard based microplate reader analysis; type: functional
Candida albicans [14] = test: Additive antifungal activity against Candida albicans ATCC 64124 assessed as fractional inhibitory concentration index measured for 72 hrs in presence of ketoconazole; type: functional
Candida albicans [15] = test: Antifungal activity against Candida albicans ATCC MYA-1237 measured after 48 hrs by broth microdilution analysis; type: functional
Candida albicans [16] = test: Synergistic antifungal activity against Candida albicans ATCC 64124 assessed as compound MIC measured after 48 hrs in presence of ketoconazole by checkboard based microplate reader analysis; type: functional
Candida albicans [17] = test: Additive antifungal activity against Candida albicans ATCC 90819 assessed as fractional inhibitory concentration index measured for 72 hrs in presence of posaconazole; type: functional
Aspergillus terreus [18] = test: Additive antifungal activity against Aspergillus terreus ATCC MYA-3633 assessed as fractional inhibitory concentration index measured for 72 hrs in presence of posaconazole; type: functional
Candida albicans [19] = test: Additive antifungal activity against Candida albicans ATCC MYA-2310 assessed as fractional inhibitory concentration index measured for 72 hrs in presence of voriconazole; type: functional
Candida albicans [20] = test: Partial synergistic antifungal activity against Candida albicans ATCC 10231 assessed as fractional inhibitory concentration index measured for 72 hrs in presence of posaconazole; type: functional
Candida albicans [21] = test: Antifungal activity against Candida albicans ATCC MYA-2310 measured after 48 hrs by broth microdilution analysis; type: functional
Nakaseomyces glabratus [22] = test: Additive antifungal activity against Candida glabrata ATCC 2001 assessed as fractional inhibitory concentration index measured for 72 hrs in presence of posaconazole; type: functional
Candida albicans [23] = test: Partial synergistic antifungal activity against Candida albicans ATCC 10231 assessed as fractional inhibitory concentration index measured for 72 hrs in presence of voriconazole; type: functional
Candida albicans [24] = test: Additive antifungal activity against Candida albicans ATCC 64124 assessed as fractional inhibitory concentration index measured for 72 hrs in presence of itraconazole; type: functional
Candida albicans [25] = test: Additive antifungal activity against Candida albicans MYA-1003 assessed as fractional inhibitory concentration index measured for 72 hrs in presence of voriconazole
Nakaseomyces glabratus [26] = test: Antifungal activity against Candida glabrata ATCC 2001 measured after 48 hrs by broth microdilution analysis; type: functional
Candida albicans [27] = test: Synergistic antifungal activity against Candida albicans ATCC 64124 assessed as compound MIC measured after 48 hrs in presence of posaconazole by checkboard based microplate reader analysis; type: functional
Candida albicans [28] = test: Synergistic antifungal activity against Candida albicans ATCC 64124 assessed as fractional inhibitory concentration index measured for 72 hrs in presence of posaconazole; type: functional
Candida albicans [29] = test: Partial synergistic antifungal activity against Candida albicans ATCC 64124 assessed as fractional inhibitory concentration index measured for 72 hrs in presence of voriconazole; type: functional
Candida albicans [30] = test: Synergistic antifungal activity against Candida albicans ATCC 10231 assessed as compound MIC measured after 48 hrs in presence of itraconazole by checkboard based microplate reader analysis; type: functional
Nakaseomyces glabratus [31] = test: Additive antifungal activity against Candida glabrata ATCC 2001 assessed as fractional inhibitory concentration index measured for 72 hrs in presence of voriconazole; type: functional
Candida albicans [32] = test: Synergistic antifungal activity against Candida albicans ATCC 10231 assessed as compound MIC measured after 48 hrs in presence of ketoconazole by checkboard based microplate reader analysis; type: functional
Candida albicans [33] = test: Synergistic antifungal activity against Candida albicans ATCC 64124 assessed as compound MIC measured after 48 hrs in presence of fluconazole by checkboard based microplate reader analysis; type: functional
Candida albicans [34] = test: Additive antifungal activity against Candida albicans ATCC 90819 assessed as fractional inhibitory concentration index measured for 72 hrs in presence of voriconazole; type: functional
Candida albicans [35] = test: Antifungal activity against Candida albicans ATCC 10231 measured after 48 hrs by broth microdilution analysis; type: functional
Candida albicans [36] = test: Additive antifungal activity against Candida albicans ATCC MYA-2310 assessed as fractional inhibitory concentration index measured for 72 hrs in presence of posaconazole; type: functional
Candida albicans [37] = test: Additive antifungal activity against Candida albicans ATCC MYA-2876 assessed as fractional inhibitory concentration index measured for 72 hrs in presence of voriconazole; type: functional
Candida albicans [38] = test: Additive antifungal activity against Candida albicans ATCC 10231 assessed as fractional inhibitory concentration index measured for 72 hrs in presence of fluconazole; type: functional
Candida albicans [39] = test: Antifungal activity against Candida albicans ATCC 90819 measured after 48 hrs by broth microdilution analysis; type: functional
Candida albicans [40] = test: Synergistic antifungal activity against Candida albicans ATCC 10231 assessed as compound MIC measured after 48 hrs in presence of voriconazole by checkboard based microplate reader analysis; type: functional
Candida albicans [41] = test: Partial synergistic antifungal activity against Candida albicans ATCC 10231 assessed as fractional inhibitory concentration index measured for 72 hrs in presence of ketoconazole; type: functional
Candida albicans [42] = test: Additive antifungal activity against Candida albicans ATCC MYA-1237 assessed as fractional inhibitory concentration index measured for 72 hrs in presence of posaconazole; type: functional
Candida albicans [43] = test: Partial synergistic antifungal activity against Candida albicans ATCC MYA-1003 assessed as fractional inhibitory concentration index measured for 72 hrs in presence of posaconazole; type: functional
Candida albicans [44] = test: Partial synergistic antifungal activity against Candida albicans MYA-2876 assessed as fractional inhibitory concentration index measured for 72 hrs in presence of posaconazole; type: functional
Candida albicans [45] = test: Partial synergistic antifungal activity against Candida albicans ATCC 90819 assessed as fractional inhibitory concentration index measured for 72 hrs in presence of posaconazole; type: functional
Candida albicans [46] = test: Additive antifungal activity against Candida albicans ATCC MYA-1237 assessed as fractional inhibitory concentration index measured for 72 hrs in presence of voriconazole; type: functional
Candida albicans [47] = test: Synergistic antifungal activity against Candida albicans ATCC 90819 assessed as fractional inhibitory concentration index measured for 72 hrs in presence of voriconazole; type: functional
Candida albicans [48] = test: Partial synergistic antifungal activity against Candida albicans ATCC 64124 assessed as fractional inhibitory concentration index measured for 72 hrs in presence of ketoconazole; type: functional
Candida albicans [49] = test: Partial synergistic antifungal activity against Candida albicans ATCC MYA-1003 assessed as fractional inhibitory concentration index measured for 72 hrs in presence of voriconazole; type: functional

O=C(CCCN1CCC(O)(c2ccc(Br)cc2)CC1)c1ccccc1
MIC (Candida albicans [1]): > 64 µg/mL
MIC (Candida albicans [2]): > 64 µg/mL
fractional inhibitory concentration index (FICI) (Candida albicans [3]): 2
MIC (Candida albicans [4]): > 64 µg/mL
fractional inhibitory concentration index (FICI) (Aspergillus terreus [5]): 2
MIC (Aspergillus terreus [6]): > 64 µg/mL
MIC (Candida albicans [7]): 16 µg/mL
fractional inhibitory concentration index (FICI) (Candida albicans [8]): 1.03
MIC (Candida albicans [9]): 64 µg/mL
MIC (Candida albicans [10]): 32 µg/mL
fractional inhibitory concentration index (FICI) (Candida albicans [11]): 1.5
fractional inhibitory concentration index (FICI) (Candida albicans [12]): 2
MIC (Candida albicans [13]): > 64 µg/mL
fractional inhibitory concentration index (FICI) (Candida albicans [14]): 1
MIC (Candida albicans [15]): > 64 µg/mL
MIC (Candida albicans [16]): 32 µg/mL
fractional inhibitory concentration index (FICI) (Candida albicans [17]): 1
fractional inhibitory concentration index (FICI) (Aspergillus terreus [18]): 1.25
fractional inhibitory concentration index (FICI) (Candida albicans [19]): 2
fractional inhibitory concentration index (FICI) (Candida albicans [20]): 0.75
MIC (Candida albicans [21]): > 64 µg/mL
fractional inhibitory concentration index (FICI) (Nakaseomyces glabratus [22]): 0.56
fractional inhibitory concentration index (FICI) (Candida albicans [23]): 0.63
fractional inhibitory concentration index (FICI) (Candida albicans [24]): 2
fractional inhibitory concentration index (FICI) (Candida albicans [25]): 1.06
MIC (Nakaseomyces glabratus [26]): > 64 µg/mL
MIC (Candida albicans [27]): 8 µg/mL
fractional inhibitory concentration index (FICI) (Candida albicans [28]): 0.19
fractional inhibitory concentration index (FICI) (Candida albicans [29]): 0.75
MIC (Candida albicans [30]): 64 µg/mL
fractional inhibitory concentration index (FICI) (Nakaseomyces glabratus [31]): 1.01
MIC (Candida albicans [32]): > 64 µg/mL
MIC (Candida albicans [33]): > 64 µg/mL
fractional inhibitory concentration index (FICI) (Candida albicans [34]): 1
MIC (Candida albicans [35]): > 64 µg/mL
fractional inhibitory concentration index (FICI) (Candida albicans [36]): 1.01
fractional inhibitory concentration index (FICI) (Candida albicans [37]): 2
fractional inhibitory concentration index (FICI) (Candida albicans [38]): 2
MIC (Candida albicans [39]): > 64 µg/mL
MIC (Candida albicans [40]): 8 µg/mL

O=C(CCCN1CCC(O)(c2ccc(Br)cc2)CC1)c1ccc(Cl)cc1
MIC (Candida albicans [1]): > 32 µg/mL
MIC (Candida albicans [2]): > 32 µg/mL
fractional inhibitory concentration index (FICI) (Candida albicans [3]): 2
MIC (Candida albicans [4]): > 32 µg/mL
fractional inhibitory concentration index (FICI) (Aspergillus terreus [5]): 2
MIC (Aspergillus terreus [6]): > 32 µg/mL
fractional inhibitory concentration index (FICI) (Candida albicans [41]): 0.75
MIC (Candida albicans [7]): 4 µg/mL
fractional inhibitory concentration index (FICI) (Candida albicans [42]): 1.02
fractional inhibitory concentration index (FICI) (Candida albicans [43]): 0.53
MIC (Candida albicans [9]): 16 µg/mL
fractional inhibitory concentration index (FICI) (Candida albicans [44]): 0.52
MIC (Candida albicans [10]): 16 µg/mL
fractional inhibitory concentration index (FICI) (Candida albicans [11]): 2
MIC (Candida albicans [13]): > 32 µg/mL
MIC (Candida albicans [15]): > 32 µg/mL
MIC (Candida albicans [16]): 0.5 µg/mL
fractional inhibitory concentration index (FICI) (Candida albicans [45]): 0.52
fractional inhibitory concentration index (FICI) (Aspergillus terreus [18]): 2
fractional inhibitory concentration index (FICI) (Candida albicans [19]): 1
fractional inhibitory concentration index (FICI) (Candida albicans [46]): 1
MIC (Candida albicans [21]): > 32 µg/mL
fractional inhibitory concentration index (FICI) (Nakaseomyces glabratus [22]): 2
fractional inhibitory concentration index (FICI) (Candida albicans [23]): 0.75
fractional inhibitory concentration index (FICI) (Candida albicans [24]): 2
fractional inhibitory concentration index (FICI) (Candida albicans [25]): 0.75
MIC (Nakaseomyces glabratus [26]): > 32 µg/mL
MIC (Candida albicans [27]): 4 µg/mL
fractional inhibitory concentration index (FICI) (Candida albicans [47]): 0.31
fractional inhibitory concentration index (FICI) (Candida albicans [28]): 0.19
fractional inhibitory concentration index (FICI) (Candida albicans [29]): 0.63
MIC (Candida albicans [30]): > 32 µg/mL
fractional inhibitory concentration index (FICI) (Nakaseomyces glabratus [31]): 2
MIC (Candida albicans [32]): 16 µg/mL
MIC (Candida albicans [33]): > 32 µg/mL
MIC (Candida albicans [35]): > 32 µg/mL
fractional inhibitory concentration index (FICI) (Candida albicans [37]): 1
fractional inhibitory concentration index (FICI) (Candida albicans [48]): 0.52
fractional inhibitory concentration index (FICI) (Candida albicans [38]): 1.5
fractional inhibitory concentration index (FICI) (Candida albicans [49]): 0.75
MIC (Candida albicans [39]): > 32 µg/mL
MIC (Candida albicans [40]): 16 µg/mL
